Laboratory results: patent publication US7973145B2, “Sulfonated sugar compounds, pharmaceutical compositions which contain the same, and methods of treating tumors with the same” (priority 2007, dated 2011)

Experiments:
[1] = tested on: human vascular endothelial cells and human fibrocytes; assay: Tube formation inhibition test using vascular endothelial cell-fibrocyte cocultivation system (angiogenesis kit KZ-1000); type: cell-based; settings: FIG. 10, combined with 2 Gy radiation, calcium(salt)-substituted compound, 10 ng/ml VEGF-A
Method: Using a angiogenesis kit (KZ-1000) manufactured by Kurabo Industries Ltd., which is a cocultivation system for human vascular endothelial cells and human fibrocytes, the effects of αSQAP C10:0, αSQAP C14:0, αSQAP C18:0, αSQAP C22:0, βSQAP C18:0, and βSQAP C18:1 on tube formation were examined. Cultivation for tube formation using the kit was conducted according to the manufacturer's instruction manual.
Using a medium containing a final concentration of 10 ng/ml of VEGF-A and being designed specifically for angiogenesis, the respective SQAP compounds were prepared to have intended concentrations. On Day 1 of the cell cultivation, special media each containing SQAP compounds at the respective concentrations and DMSO (negative control) were added to the cultivation systems. The systems were cultivated for 30 minutes, and irradiated with 2 Gy of cobalt 60. Thereafter, on Days 4, 7, and 10 of the cultivation, the media were replaced with newly prepared special media containing SQAP or DMSO. The media were removed on Day 11 of the cultivation, fixed with 70% ethanol, and the formed tubes were stained with anti-human CD31 antibody. The stained figures were photographed under an optical microscope, and the quantity of tube formation was calculated by the image analysis. The angiogenesis index was calculated according to the manufacturer's instruction manual.

[2] = tested on: bone marrow cells (immature erythrocytes); assay: Micronucleus test by rat intravenous administration; type: in vivo; settings: male SD rats
Method: Five male SD rats were assigned to each of the six groups (1) to (6): The test solutions for (1) to (5) contained a normal saline solution containing 10% CREMOPHOR EL as the solvents, and the above-described doses were administered to the rats twice in total for two consecutive days. To the positive control group, the above-described dose was administered once. About 24 hours after the administration, bone marrow smears were prepared. Two thousands of immature erythrocytes were counted for each individual, and the incidence of immature erythrocytes having a micronucleus was calculated. As the index of marrow proliferation suppression, the proportion of immature erythrocytes contained in 1000 erythrocytes was calculated. […] In addition, no influence was found on the marrow proliferation suppression in the test substance-administered group.

[3] = tested on: Human esophageal squamous cell carcinoma cells TE-8; assay: Radiosensitizing effect test, tumor-bearing mouse, human esophageal squamous cell carcinoma; type: in vivo, KSN nude mice
Method: (§1) The radiosensitizing effect was examined through tumor-bearing mouse experiment.
Human esophageal squamous cell carcinoma cells TE-8 were transplanted into the right femoral region of KSN nude mice in a ratio of 1×10^6 cells per individual. Subsequently, the mice were bred for about 14 days to form a tumor mass of about 150 mm^3 in each individual. Thereafter, four mice were assigned to each of the following groups (1) to (4):
(§2) The drug was administered from Day 1 to Day 5, 2 mg/kg once a day. The subjects were exposed to radiation emitted from an X-ray generator (HS-225, manufactured by Shimadzu Co., Ltd.) at a dose of 2 Gy on Day 1 and Day 4. The tumor volume was calculated according to the calculation formula: (minor axis)^2×major axis×0.5.
This experiment was conducted in the same manner as Example V-1, except that the drug dose administered from Day 1 to Day 5 was 1 mg/kg once a day, and the radiation dose was 4 Gy, and the tumor volume was measured.
Human esophageal squamous cell carcinoma cells TE-8 were transplanted into the right femoral region of KSN nude mice in a ratio of 1×10^6 cells per individual. After a tumor mass of about 50 mm^3 was formed in each individual, four mice were assigned to each of the four groups (1) to (4):
The drug was administered intraperitoneally from Day 1 to Day 5, 1 mg/kg once a day. The subjects were exposed to radiation emitted from an X-ray generator (HS-225, manufactured by Shimadzu Co., Ltd.) at a dose of 4 Gy on Day 1 and Day 4.

[4] = tested on: Salmonella typhimurium and Escherichia coli indicator bacterial strains; assay: Reverse mutation assay (Ames test); settings: 2 μg to 5000 μg per plate, presence or absence of S9 mix, all five strains
[5] = tested on: Human colonic adenocarcinoma cells SW480; assay: Antineoplastic effect test (drug alone), tumor-bearing mouse; type: in vivo, KSN nude mice; settings: Example VI, FIG. 9; calcium(salt)-substituted compound alone, intraperitoneally 20 mg/kg once a day Day 1 to Day 14
Method: Human colonic adenocarcinoma cells SW480 were transplanted into the right femoral region of KSN nude mice in a ratio of 2×10^6 cells per individual. After a tumor mass of about 50 mm^3 was formed in each individual, four mice were assigned to each of the two groups (1) and (2):
The drug was administered intraperitoneally from Day 1 to Day 14, 20 mg/kg once a day.

[6] = Solubility measurement in injectable water; type: physicochemical; settings: 1 g in 5 ml of injectable water
[7] = tested on: Human colonic adenocarcinoma cells SW480; assay: Radiosensitizing effect test, tumor-bearing mouse, human colonic adenocarcinoma; type: in vivo, KSN nude mice
Method: as §1
Human colonic adenocarcinoma cells SW480 were transplanted into the right femoral region of KSN nude mice in a ratio of 1×10^6 cells per individual. Subsequently, the mice were bred for about 14 days to form a tumor mass of about 150 mm^3 in each individual.
as §2
Human colonic adenocarcinoma cells SW480 were transplanted into the right femoral region of KSN nude mice in a ratio of 2×10^6 cells per individual. After a tumor mass of about 50 mm^3 was formed in each individual, four mice were assigned to each of the four groups (1) to (4):
The drug was administered from the tail vein from Day 1 to Day 5, 1 mg/kg once a day. The subjects were exposed to radiation emitted from an X-ray generator (HS-225, manufactured by Shimadzu Co., Ltd.) at a dose of 2 Gy on Day 1 and Day 4.

SD rats = assay: Single dose (acute) toxicity test; type: in vivo; settings: female and male SD rats, single dose via tail vein
Method: Using αSQAP C18:0, an acute toxicity test was conducted on rats. Five female and five male SD rats of 5 to 6 weeks old were assigned to each of the groups (1) to (7):
The test solution for (1) and (4) to (7) contained a normal saline solution containing 10% CREMOPHOR EL, (2) contained a normal saline solution containing 2.5% CREMOPHOR EL, and (3) contained a normal saline solution containing 5% CREMOPHOR EL as the solvents.

[8] = final concentrations of 5 and 10 μM
[9] = final concentrations of 5, 10, and 20 μM
[10] = intravenous, 25 to 200 mg/kg twice for two consecutive days
[11] = Examples V-5 and V-6, FIG. 7 and 8, calcium(salt)-substituted compound, intraperitoneally 1 mg/kg once a day Day 1 to Day 5 plus X-ray 4 Gy on Day 1 and Day 4

**Q.** With CCCCCCCCCCCCCCCCCC(=O)OCCCO[C@@H]1O[C@H](CS(=O)(=O)[O-])[C@@H](O)[C@H](O)[C@H]1O.[Na+] [βSQAP C18:0, 3-O-(6-sulfo-β-D-quinovopyranosyl)-1-O-stearoyl-propane-1,3-diol sodium salt] as the molecule, how does the tube formation [1, 8] read?
**A.** inhibited tube formation in a concentration-dependent manner

**Q.** With CCCCCCCCCCCCCC(=O)OCCCO[C@H]1O[C@H](CS(=O)(=O)[O-])[C@@H](O)[C@H](O)[C@H]1O.[Na+] [αSQAP C14:0, 3-O-(6-sulfo-α-D-quinovopyranosyl)-1-O-myristoyl-propane-1,3-diol sodium salt] as the molecule, how does the tube formation [1, 9] read?
**A.** inhibited tube formation in a concentration-dependent manner

**Q.** With CCCCCCCCCCCCCCCCCCCCCC(=O)OCCCO[C@H]1O[C@H](CS(=O)(=O)[O-])[C@@H](O)[C@H](O)[C@H]1O.[Na+] [αSQAP C22:0, 3-O-(6-sulfo-α-D-quinovopyranosyl)-1-O-behenoyl-propane-1,3-diol sodium salt] as the molecule, how does the tube formation [1, 9] read?
**A.** inhibited tube formation in a concentration-dependent manner

**Q.** With “3-O-(6-sulfo-α-D-quinovopyranosyl)-1-O-stearoyl-propane-1,3-diol calcium salt [αSQAP C18:0 calcium salt]” as the molecule, how does the “incidence of micronuclei (immature erythrocytes having a micronucleus) in comparison with the non-administered group” value ([2]; intravenous, 25, 50, 100, 200 mg/kg twice for two consecutive days, bone marrow about 24 hours after) read?
**A.** no significant increase

**Q.** And the “chromosomal aberration in bone marrow cells” value [2, 10]?
**A.** inducing no chromosomal aberration

**Q.** And the “marrow proliferation suppression (proportion of immature erythrocytes in 1000 erythrocytes)” value [2, 10]?
**A.** no influence

**Q.** With CCCCCCCCCCCCCCCCCC(=O)OCC(O)CO[C@H]1O[C@H](CS(=O)(=O)[O-])[C@@H](O)[C@H](O)[C@H]1O.[Na+] (stereo partly drawn) [αSQMG C18:0, 3-O-(6-sulfo-α-D-quinovopyranosyl)-1-O-stearoyl-glycerol sodium salt, reference compound] as the molecule, how does the “increase of the tumor volume, drug plus radiotherapy, in comparison with other groups” value ([3]; Example V-1, FIG. 3, 2 mg/kg once a day Day 1 to Day 5 plus X-ray 2 Gy on Day 1 and Day 4) read?
**A.** most suppressed

**Q.** For CCCCCCCC/C=C\CCCCCCCC(=O)OCCCO[C@@H]1O[C@H](CS(=O)(=O)[O-])[C@@H](O)[C@H](O)[C@H]1O.[Na+] [βSQAP C18:1, 3-O-(6-sulfo-β-D-quinovopyranosyl)-1-O-oleoyl-propane-1,3-diol sodium salt], which tube formation [1, 8] is on record?
**A.** inhibited tube formation in a concentration-dependent manner

**Q.** What does the source list for CCCCCCCCCCCCCCCCCC(=O)OCCCO[C@H]1O[C@H](CS(=O)(=O)[O-])[C@@H](O)[C@H](O)[C@H]1O.[Na+] [αSQAP C18:0, 3-O-(6-sulfo-α-D-quinovopyranosyl)-1-O-stearoyl-propane-1,3-diol sodium salt]?
**A.** tube formation [1, 9]: inhibited tube formation in a concentration-dependent manner; mutagenicity [4]: negative; number of revertant colonies ([4]; calcium(salt)-substituted compound): did not increase; suppression of the increase of the tumor volume compared with radiotherapy alone ([3]; Example V-1, FIG. 3, drug alone (un-irradiated), 2 mg/kg once a day Day 1 to Day 5, versus 2 Gy on Day 1 and Day 4 alone): at the same level; increment of the tumor volume versus non-administered, un-irradiated group ([3]; Example V-1, FIG. 3, drug alone (un-irradiated), 2 mg/kg once a day Day 1 to Day 5, from about Day 10): fell below that in the (1) non-administered, un-irradiated group; increase of the tumor volume, drug plus radiotherapy, in comparison with other groups ([3]; Example V-2, FIG. 4, 1 mg/kg once a day Day 1 to Day 5 plus X-ray 4 Gy): most strongly suppressed; increment in the tumor volume versus non-administered, un-irradiated group ([3]; Example V-2, FIG. 4, drug alone (un-irradiated), 1 mg/kg once a day Day 1 to Day 5): smaller than that in the (1) non-administered, un-irradiated group; increase of the tumor volume, drug plus radiotherapy, in comparison with other groups [3, 11]: most suppressed; increase of the tumor volume in comparison with the non-administered group [5]: markedly suppressed; solubility evaluation by the criteria of the general rules Japanese Pharmacopeia ([6]; 25° C.): readily soluble; dissolution in injectable water ([6]; strongly shaken at 25° C.): immediately dissolved; increase of the tumor volume, drug plus radiotherapy ([7]; Example V-3, FIG. 5, 2 mg/kg once a day Day 1 to Day 5 plus X-ray 2 Gy on Day 1 and Day 4): markedly suppressed; increase of the tumor volume, drug plus radiotherapy, in comparison with other groups ([7]; Example V-4, FIG. 6, calcium(salt)-substituted compound, tail vein 1 mg/kg once a day Day 1 to Day 5 plus X-ray 2 Gy on Day 1 and Day 4): most suppressed; mortality during the test period (SD rats; 25 to 800 mg/kg, observed for two days): No individual died; lethal dose (SD rats; estimated): higher than 800 mg/kg

**Q.** Which tube formation [1, 9] does the source give for CCCCCCCCCC(=O)OCCCO[C@H]1O[C@H](CS(=O)(=O)[O-])[C@@H](O)[C@H](O)[C@H]1O.[Na+] [αSQAP C10:0, 3-O-(6-sulfo-α-D-quinovopyranosyl)-1-O-decanoyl-propane-1,3-diol sodium salt] here?
**A.** inhibited tube formation in a concentration-dependent manner

**Q.** What about the “increase of the tumor volume, drug plus radiotherapy, in comparison with other groups” value [3, 11] of the same molecule?
**A.** most suppressed
